What was measured:
[1] = molecular target: T1, cold extract from Neonothopanus nambi (Neonothopanus nambi, UniProt A0A3G9K5C8); experiment: Bioluminescent test of hot-extract HPLC fractions with cold extract and NADPH; assay type: biochemical; details: cold extract from N. nambi, NADPH; values normalised against optical density at 360 nm
T1 construct: an extract comprising the enzymes of the fungal bioluminescent system and free from low-molecular-weight components; from tissue; host or cells: Neonothopanus nambi mycelium, crude cold extract (30000 g supernatant of the homogenate)
Procedure: The obtained extracts were tested in a bioluminescent test described by Oliveira and Stevani (Photochem. Photobiol. Sci., 2009, 8, 1416) using a cold extract from Neonothopanus nambi.
In order to obtain a cold extract, the mycelium was washed to get rid of culture medium, then, it was put into a 200-fold amount of distilled water for 15 hours at 26° C. Thereafter, the mycelium was separated from water by centrifugation, then, it was homogenized on ice in 10 volumes of 0.2 M phosphate buffer, pH 7.5 and sonicated on ice for 10 minutes using Ultrasonic disintegrator UD-20. The homogenate was centrifuged at 30000 g at […] for 20 minutes. The obtained cold extract was stored at −20° C.
500 μl of the following components were mixed for a bioluminescent test: 25 μL of cold extract, 2 μL of hot extract, 442 μL 0.2 M phosphate buffer, pH 7.5, 1 μL 1 M DTT and 10 μL 1% Triton X-100. The bioluminescent reaction was initiated in a Glomax 20/20 (Promega, USA) luminometer cuvette by adding 20 μL 20 mM NADPH. Luminescence was measured at 23±1° C.
The maximum luminescence of fractions 1-6 was 24000, 80, 6670, 40, 1300 and 1000 correspondingly (a signal-to-noise ratio of the luminometer, the values were normalised against optical density at 360 nm).

fungal bioluminescence = details: isolated from Pleurotus japonicus; cited from earlier work
[2] = molecular target: T2, luciferase and hispidin-3-hydroxylase (cold extract of N. nambi) (Neonothopanus nambi, UniProt A0A3G9K5C8); experiment: Dependence of maximal bioluminescence (Imax) on reagent concentration in the reaction mixture; assay type: biochemical
T2 construct: an extract comprising the enzymes of the fungal bioluminescent system and free from low-molecular-weight components; from tissue; host or cells: Neonothopanus nambi mycelium, crude cold extract (30000 g supernatant of the homogenate)
Procedure: The concentrated hispidin solution was used to produce dilutions of 1/50, 1/500, 1/5000, 1/50000 in an aqueous solution with 0.1% Triton X-100 and 0.1% formic acid.
The reaction mixture in the bioluminometer cuvette comprised: 100 μL 0.1 M phosphate buffer, pH 7.5, containing 0.1 mM DTT, 4 μL of the cold extract of N. nambi, 1-5 μL of hispidin dilutions. The bioluminescent reaction was activated by adding 4 μL 10 mM NADPH. Bioluminescence was measured at 25° C.
The reaction mixture in the bioluminometer cuvette comprised: 100 μL 0.1 M phosphate buffer, pH 7.5, comprising 0.1 mM DTT, 4 μL of the cold extract of N. nambi, 4 μL 64 μM hispidin solution and various amounts of Triton X-100 detergent. The bioluminescent reaction was activated by adding 4 μL 10 mM NADPH. […] The optimal detergent concentration in the reaction mixture was determined as 0.015 to 0.03%. The maximum detergent concentration at which bioluminescence was observed was 0.5%.
The reaction mixture in the bioluminometer cuvette comprised: 100 μL 0.1 M phosphate buffer, pH 7.5, comprising 0.1 mM DTT, 4 μL of the cold extract of N. nambi, 4 μL […] hispidin solution. The bioluminescent reaction was activated by adding various amounts of NADPH. […] The minimum NADPH concentration which provided detectable bioluminescence was 20 μM.
The reaction mixture in the bioluminometer cuvette comprised: 100 μL 0.1 M phosphate buffer, pH 7.5, comprising various concentrations of DTT, 4 μL of the cold extract of N. nambi, 4 μL 64 μM hispidin solution. The bioluminescent reaction was activated by adding 4 μL 10 mM NADPH. […] The optimal DTT concentration in the reaction mixture was 0.5 to 3 mM. The maximum DTT concentration which provided bioluminescence was 10 mM.

[3] = Stability of 3-hydroxyhispidin; assay type: physicochemical
[4] = Solubility of 3-hydroxyhispidin; assay type: physicochemical
luciferase = experiment: Detection of luciferase in microsomal fractions of cold extracts with 3-hydroxyhispidin; assay type: biochemical; details: aliquots with 0.006 ng and 0.16 ng of luciferin; microsomal fractions of four fungi
Procedure: 3-hydroxyhispidin was obtained as described in Example 3. The microsomal fractions of the cold extracts of Neonothopanus nambi, Mycena citricolor, Panellus stipticus and Armillaria borealis were used as biological samples. The cold extracts were obtained as described in Example 2. The microsomal fractions were obtained as described in Example 3.
10 μg of 3-hydroxyhispidin were dissolved in 1 mL 50% water-acetonitrile mixture containing 0.1% formic acid.
During the experiment, in each case, the background luminescence of the microsomal fraction was measured in the first place, and then, at 0.7 and 1.55 minutes, 3-hydroxyhispidin solution aliquots were added, which contained 0.006 ng and 0.16 ng of luciferin, correspondingly.

[5] = tested on: luciferase and hispidin-3-hydroxylase; experiment: Detection of luciferase and hispidin-3-hydroxylase in fungal cold extracts with hispidin and NAD(P)H; assay type: biochemical
Procedure: Commercially available hispidin (Sigma-Aldrich, USA) was used for detecting luciferase and hispidin-3-hydroxylase in the cold extracts obtained from the mycelia of Neonothopanus nambi, Mycena citricolor, Panellus stipticus, and Armillaria borealis as described in Example 1.
Hispidin was dissolved in DMSO to a final concentration of 8 mg/ml (32 mM). Then, the obtained concentrated solution was diluted 500-fold by aqueous solution containing 0.1% Triton X-100 and 0.1% formic acid. Hispidin concentration in the obtained working solution was 64 μM.
The reaction mixture in Glomax 20/20 cuvette (Promega, USA) comprised: 100 μL 0.2 M phosphate buffer, pH 7.5, comprising 0.1 mM DTT and 0.1 mM EDTA, 1-5 μL of fungal extract, 4 μL 64 μM hispidin solution. The luminescent reaction was initiated by adding 4 μL 10 mM NADPH.
In a different experiment, the same samples were tested for the presence of luciferase and hispidin-3-hydroxylase activities as described above with the exception that NADH was used (instead of NADPH). In this case, luminescence was 2-3 times lower than when using NADPH.

[6] = hispidin, NADPH, cold extract of N. nambi
[7] = 0.1 M phosphate buffer pH 7.5, 0.1 mM DTT, NADPH, 25° C.

T2 sequence (A0A3G9K5C8 whole entry): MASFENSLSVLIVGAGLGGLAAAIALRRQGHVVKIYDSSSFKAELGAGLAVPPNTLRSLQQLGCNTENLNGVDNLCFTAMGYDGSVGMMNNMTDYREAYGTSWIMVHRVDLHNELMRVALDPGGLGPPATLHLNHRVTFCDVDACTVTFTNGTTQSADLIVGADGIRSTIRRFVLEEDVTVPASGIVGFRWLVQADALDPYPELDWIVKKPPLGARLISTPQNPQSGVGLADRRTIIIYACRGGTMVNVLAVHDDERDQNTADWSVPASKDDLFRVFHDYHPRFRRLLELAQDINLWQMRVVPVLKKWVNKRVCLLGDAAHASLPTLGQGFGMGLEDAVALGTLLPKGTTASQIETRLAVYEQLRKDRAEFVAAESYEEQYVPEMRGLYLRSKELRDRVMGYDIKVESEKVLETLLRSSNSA
T1 sequence (A0A3G9K5C8 whole entry): as above

With `O=c1cc(O)cc(/C=C\c2ccc(O)cc2)o1` (single isomer, unassigned) [Fraction 6, (Z)-4-hydroxy-6-(4-hydroxystyryl)-2H-pyran-2-one] the maximum luminescence [1] was 1000 signal-to-noise ratio of the luminometer.
In the case of `Cc1cc2nc3c(=O)[nH]c(=O)nc-3n(C[C@H](O)[C@H](O)[C@H](O)CO)c2cc1C` [riboflavin], the bioluminescent activity (fungal bioluminescence) is listed as “did not show bioluminescent activity”.
In the case of `CC1=C2C(=C[C@@](C)(CO)[C@@H]2O)C(=O)[C@](C)(O)C12CC2` [illudin S], the bioluminescent activity (fungal bioluminescence) is listed as “did not show bioluminescent activity”.
In the case of `Cc1cc2nc3c(=O)[nH]c(=O)nc-3n(C[C@H](O)[C@H](O)[C@H](O)COC3OC(CO)C(O)C3O)c2cc1C` (some centres unmarked) [lampteroflavin], the bioluminescent activity (fungal bioluminescence) is given as “did not show bioluminescent activity”.
For Triton X-100 [reference compound], the “maximum detergent concentration at which bioluminescence was observed” value [2, 6] was 0.5%.
For `O=c1oc(/C=C/c2ccc(O)c(O)c2)cc(O)c1O` [3-hydroxyhispidin, (E)-6-(3,4-dihydroxystyryl)-3,4-dihydroxy-2H-pyran-2-one], the “storage time with no activity loss” value ([3]; lyophilized, −20° C., often no less than 60 days, normally no less than a year) was “no less than 30 days”, the thermal stability ([3]; water solution) was “can sustain short-term boiling” and the stability during chromatography ([3]; water-acetonitrile mixture with formic acid, final concentration 0.1%) was “shows stability”. For the same compound, the “solubility in aprotic solvents” value ([4]; DMSO, acetonitrile, acetone, etc.) was “readily soluble”, the solubility in water ([4]; water) was “moderately soluble” and the “luminescence of microsomal fractions after adding 3-hydroxyhispidin” value (luciferase) was “luminescence was detected”.
For `O=c1cc(O)cc(/C=C/c2ccc(O)c(O)c2)o1` (single isomer, unassigned) [Fraction 1, (E)-6-(3,4-dihydroxystyryl)-4-hydroxy-2H-pyran-2-one], the “luminescence of cold extracts after adding hispidin and NADPH” value ([5]; 4 μL 64 μM hispidin, 4 μL 10 mM NADPH, cold extracts of four fungi) was “Luminescence was detected in all cases”, the “hispidin concentration at which detectable luminescence was observed” value [2, 7] was at least 0.002 µM and the “optimal hispidin concentration in the reaction mixture” value [2, 7] was 2.5 µM. The “hispidin concentration at which inhibition of the luminescent reaction was observed” value ([2]; probably substrate inhibition) was “more than 5 μM” and the maximum luminescence [1] was 24000 signal-to-noise ratio of the luminometer.
In the case of 3.3-bishispidinyl [Fraction 2], the maximum luminescence [1] is reported as 80 signal-to-noise ratio of the luminometer.
With `O=c1cc(O)cc(/C=C/c2ccc(O)cc2)o1` (single isomer, unassigned) [Fraction 5, (E)-4-hydroxy-6-(4-hydroxystyryl)-2H-pyran-2-one] the “maximum intensity of sample luminescence, times lower as compared to using hispidin” value ([5]; bisnoryangonin added instead of hispidin) was “approximately 10 times” and the maximum luminescence [1] was 1300 signal-to-noise ratio of the luminometer.
With `O[C@H](CS)[C@H](O)CS` (racemic) [DTT, dithiothreitol, reference compound] the “maximum DTT concentration which provided bioluminescence” value [2, 6] was 10 mM.
For `O=c1cc(O)cc(C=Cc2cc(O)c(O)cc2-c2c(O)cc(C=Cc3ccc(O)cc3)oc2=O)o1` [Fraction 4, 3-bisnoryangonyl-14-hispidin], the maximum luminescence [1] was 40 signal-to-noise ratio of the luminometer.
For “nicotinamide adenine dinucleotide phosphate [NADPH, reference compound]”, the “minimum NADPH concentration which provided detectable bioluminescence” value ([2]; hispidin, cold extract of N. nambi, pH 7.5) was 20 µM.
For `O=c1cc(O)cc(/C=C\c2ccc(O)c(O)c2)o1` (single isomer, unassigned) [Fraction 3, (Z)-6-(3,4-dihydroxystyryl)-4-hydroxy-2H-pyran-2-one], the maximum luminescence [1] was 6670 signal-to-noise ratio of the luminometer.
